Publication PMC4036671, “Switching and emergence of CTL epitopes in HIV-1 infection” (Retrovirology, 2014)

Legend:
[1] = tested on: expanded PBMCs from 46 HIV-1 patients; experiment: IFN-γ ELISpot assay using expanded PBMCs (screening of HLA-A*24:02-restricted epitopes); format: cell-based, human; settings: for response rate: 46 HLA-A*24:02-positive HIV-1 patients, peptide 10^-5 M, overnight 16 to 18 h, positive >50 SFU per 10^6 cells; for peptide-specific response among patients with Nef135Y: eight patients with Nef135Y in plasma HIV RNA
Protocol: (§1) The gamma interferon enzyme-linked immunospot (IFN-γ ELISpot) assay was performed using patients’ PBMCs as previously described with some modifications. In brief, 96-well plates (Millipore) were coated with anti-gamma-interferon (IFN-γ) MAb 1-D1k (Mabtech) overnight at 4°C. Peptides were added directly to the wells at a final concentration of 10^-5 M. 5 ~ 10 × 10^4 cells were added to each well with a final volume of 100 μl of R10. For negative controls, PBMCs were incubated with R10 alone without peptides. After incubation at 37°C under 5% CO2 overnight (16 to 18 h), the plates were washed six times with phosphate-buffered saline containing 0.01% tween-20 (PBST). Biotinylated anti-IFN-γ MAb 7-B6-1 (Mabtech) was added, and was incubated for 2 hours at 37°C under 5% CO2. After washing with PBST, streptavidin-alkaline phosphatase conjugate (Mabtech) was added and the plates were kept at room temperature for 45 min. After washing with PBST, IFN-γ-producing cells were detected as dark spots after 10- to 20-min color reaction with 5-bromo-4-chloro-3-indolylphosphate and nitroblue tetrazolium by using AP Conjugate Substrate Kit (Bio-Rad). Spots were counted by KS ELISPOT compact (Carl Zeiss) and expressed as spot-forming units (SFU) per 10^6 PBMCs after subtracting the SFU of the negative control. Values with >50 SFU, >3 × mean SFU of negative control and > mean SFU of negative control + 3 SD per 10^6 input cells were considered as a positive response.
(§2) Since more cells were required for the immune response screening (Figure 1B) and functional avidity assays (Figures 4B and 6C), PBMCs were stimulated with anti-human CD3 antibody and the T cells were expanded for 2 to 3 weeks in R10/50 (BD Pharmingen). Culture media was changed to R10 two days prior to the assay date. For ex vivo IFN-γ ELISpot assay (Figures 5B and 6B), PBMCs were cultured for 6 hours in R10 media.

expanded PBMCs [2] = experiment: Longitudinal IFN-γ ELISpot assay with serially diluted peptides in one individual; format: cell-based, human; settings: one patient; for peptide-specific IFN-γ ELISpot response, latter time point: 2003/3/20, plasma virus 133T/135F
Protocol: as §1, with “In brief, 96-well plates (Millipore) were coated with anti-gamma-interferon (IFN-γ) MAb 1-D1k (Mabtech) overnight at 4°C.” left out, “Biotinylated anti-IFN-γ MAb 7-B6-1 (Mabtech) was added, and was incubated for 2 hours at 37°C under 5% CO2.” left out
as §2

HLA-A*24:02 = HLA-A*24:02 (Homo sapiens, UniProt P04439, D101N/D140Y/D185E/E176V/E190D/F33S/G103R/G107R/I119L/I121M/I306V/K335N/L105A/L180Q/L300P/N151K/N90K/Q86E/Q94H/R106L/R138H/R89G/T104I/T345S/V100E/W191G/Y123F); experiment: Peptide-HLA binding assay (T2-A24 stabilization assay); settings: T2-A24 cells, 10^-4 to 10^-9 M peptide, normalized MFI (to 10^-4 M Nef134-8), three independent experiments
Protocol: Peptide binding to HLA-A*24:02 was assessed by using a T2-A24 stabilization assay as previously described. Briefly, after incubation for 16 hours at 26°C under 5% CO2, 2 × 10^5 T2-A24 cells were incubated with 10^-4 to 10^-9 M peptides for 1 h at 4°C. After keeping at 37°C under 5% CO2 for 3 hours, the cells were stained with biotinylated anti-human HLA-A9 monoclonal antibody (One Lambda), and streptavidin-APC conjugates (BD Pharmingen). The mean fluorescence intensity (MFI) was measured by FACSCalibur (Becton Dickinson). In each experiment, MFI of samples was normalized by the MFI of 10^-4 M control peptide, Nef134-8([…]). Three independent experiments were performed.

[3] = tested on: Nef126-10-specific CTL clone I30-1; experiment: Epitope recognition by CTL clone, peptide-pulsed 293FT-A24DRm-CY0 cells, IFN-γ ELISA; format: cell-based, human; settings: 293FT-A24DRm-CY0 cells pulsed with serially diluted peptide (3^2 to 3^-6 μM), co-culture 18 to 24 h, three independent experiments
Protocol: (§3) The cells were washed twice with R10, then cultured with 1 × 10^6 autologous PBMCs and 4 × 10^6 irradiated (3300 rad) allogeneic PBMCs in R10. After 4 days, IL-2 was added to 50 U/ml and the cells were cultured for 2–3 weeks in R10/50. Peptide-specific CD8^+ T cells were enriched by MACS separation (Miltenyi) using tetramers. The sorted cells were cloned by limiting dilution to 3 or 10 cells/well in 96-well round-bottom tissue culture plates, and cultured with 10^5 irradiated allogeneic PBMCs in R10/50 containing 5 μg/ml PHA-L.
(§4) CTL-recognition of the epitopes was assessed by serially diluted peptides. On day 0, 293FT-A24DRm-CY0 cells were seeded onto 96-well Flat-bottom transparent plate (BD Falcon) so that the cultures become confluent on day 2. On day 2, each peptide was pulsed with concentrations from 3^2 to 3^-6 μM to the wells and incubated at 37°C under 5% CO2 for 1 h. Then CTLs (5,000 ~ 10,000 cells) were added and co-cultured at 37°C under 5% CO2 for 18 to 24 h. After the incubation, supernatants were harvested, and IFN-γ concentrations were quantified by Human IFN-γ ELISA Set (BD Bioscience). In each experiment, the IFN-γ value of samples was normalized to that of the highest wild type peptide concentration (9 μM). For example, each IFN-γ value of I30-1 CTL clone was divided by the value of the well pulsed with 9 μM Nef126-10(wt) peptide. Each assay was performed in duplicate and three independent experiments were conducted.

PBMCs = experiment: Ex vivo IFN-γ ELISpot assay; format: cell-based, human; settings: for correlation between magnitude of peptide-specific response and pVL: 24 IMSUT cohort patients harboring 133I/135F or 133T/135F, ex vivo IFN-γ ELISpot with frozen PBMCs, Spearman's rank correlation; for patients with peptide-specific response, plasma viruses 133T/135F: patients with 133T/135F viruses (n = 10)
Protocol: as §1, §2

expanded PBMCs [4] = experiment: Functional avidity assay (IFN-γ ELISpot, limiting dilution of peptide); format: cell-based, human; settings: nine individuals harboring 133T/135F, peptide 10^-5 to 10^-12 M, compared to Nef126-10(8T10F), Mann-Whitney U-test p < 0.05
Protocol: Basically, the assay was performed using the same procedure with IFN-γ ELISpot assay as described above. PBMCs were cultured for 2 to 3 weeks in R10/50 after anti-human CD3 antibody (BD Pharmingen) stimulation, and culture media were changed from R10/50 to R10 two days before use. PBMCs were incubated with peptides at concentrations from 10^-5 to 10^-12 M, and SFU was calculated. The functional avidity to peptide dilutions was determined as a 50% of sigmoidal dose (SD50) SFU.
All data visualization and statistical analyses were performed using GraphPad Prism (GraphPad Software, La Jolla, CA). Student’s t-test and Mann–Whitney U-test were used to compare the antigen presentation and functional avidity between two groups, respectively. Spearman rank correlation was used to calculate the correlation between peptide-specific response and pVL. Dose at 50% response in sigmoidal dose–response curves (SD50) was calculated by drawing sigmoidal dose–response curves. Time to mutational escape, defined as the time elapsed between estimated date of HIV-1 infection and the first appearance of a full or partial amino acid change consistent with the specific escape mutation of interest, was calculated using Kaplan-Meier (survival) methods.

[5] = tested on: Nef134-10-specific CTL clone H27-9; experiment: Epitope recognition by CTL clone, peptide-pulsed 293FT-A24DRm-CY0 cells, IFN-γ ELISA; format: cell-based, human; settings: 293FT-A24DRm-CY0 cells pulsed with serially diluted peptide (3^2 to 3^-6 μM), co-culture 18 to 24 h, three independent experiments
Protocol: as §3, §4

Substance | response rate [1] | binding to HLA-A*24:02 (HLA-A*24:02) | IFN-γ production by CTL clone I30-1 [3] | peptide-specific IFN-γ ELISpot response, latter time point (expanded PBMCs [2]) | further results
Nef126-10: published HLA-A*24:02-restricted HIV-1 nef CTL epitope peptide, 10 amino acids from Nef126 (HXB2 numbering) (NYTPGPGVRY; UniProt P04601 126-135, looked up, fragment) | 50.0% | – | – | – | number of responders among patients harboring Nef135F ([1]; 35 patients harboring Nef135F): 23; peptide-specific response among patients with Nef135Y [1]: none of the eight patients; peptide-specific IFN-γ ELISpot response, earlier time point (expanded PBMCs [2]; 2000/9/4, plasma virus wild type around Nef126-10/Nef134-10): no Nef126-10-specific responses were observed
Nef126-10(8I10F) (NYTPGPGIRF) | – | dramatically improved its binding | strong responses at very low peptide concentration | robust responses | correlation between magnitude of peptide-specific response and pVL (PBMCs): inversely correlated with pVL; patients with peptide-specific response, plasma viruses 133T/135F (PBMCs; ex vivo IFN-γ ELISpot, PBMCs): 7 of 10; functional avidity (SD50) of peptide-specific CTL responses (expanded PBMCs [4]): significantly higher avidities
Nef126-10(wt): wild-type Nef126-10 peptide with Y at the C-terminus (NYTPGPGIRY) | – | lowers the affinity | only at high concentrations | detected only at high peptide concentrations | –
VPLDKDFRKY [reference compound] | – | might not bind to HLA-A*24:02 | – | – | –
KYKLKHIVW [Gag28-9, reference compound] | 40.0% | – | Neither clone showed specificity | – | IFN-γ production by CTL clone H27-9 [5]: Neither clone showed specificity
Nef126-10(8T10F): Nef126-10 peptide with threonine at 8th position (I133T) and F at position 10 (NYTPGPGTRF) | – | did not significantly affect epitope-HLA binding | strong responses at very low peptide concentration | robust responses | correlation between magnitude of peptide-specific response and pVL (PBMCs): not; patients with peptide-specific response, plasma viruses 133I/135F (PBMCs; ex vivo IFN-γ ELISpot, PBMCs, patients with 133I/135F viruses (n = 4)): 0 of 4; patients with peptide-specific response, plasma viruses 133T/135F (PBMCs; ex vivo IFN-γ ELISpot, PBMCs): Nine out of 10
Nef134-10: published HLA-A*24:02-restricted HIV-1 nef CTL epitope peptide, 10 amino acids from Nef134 (HXB2 numbering) (RYPLTFGWCY; UniProt P04601 134-143, looked up, fragment) | 80.4% | – | – | decreased but remained detectable | number of responders among patients harboring Nef135F ([1]; 35 patients harboring Nef135F): 28; response rate among patients harboring Nef135F ([1]; 35 patients harboring Nef135F): 80.0%; peptide-specific response among patients with Nef135Y [1]: all of them
